The record followed here is US10030047B2 (Hoffmann-La Roche Inc., priority 2015, dated 2018).

As usually defined, the MIC is the smallest concentration in the dilution series that meets the test's criterion for growth inhibition.

Values after ≈ are worked out from the molar mass of the structure shown.

The assay deals with A. baumannii strain ATCC19606. The experiment in a line: Minimum inhibitory concentration (MIC) determination, microbroth dilution (CLSI). Format: cell-based. To be noted: Acinetobacter baumannii; A. baumannii ATCC19606; CAMHB; read after 20 hours; >=80% growth inhibition; read-out: ATCC19606 MIC. The essentials: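 CLSI broth microdilution in cation-adjusted Mueller Hinton broth with twofold compound dilutions and ~5×10^5 CFU/ml inoculum, incubated at 35±2 °C. MIC read after 20 h as lowest concentration inhibiting ≥80% of growth, by eye and OD 600 nm.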
(In general: In broth dilution the organism is exposed to a series of concentrations in liquid medium.)
As to `COc1cc(-c2cc3c(cn2)Sc2ncccc2CN[C@@H](CCCN)C(=O)N[C@@H](CCCCN)C(=O)N(C)[C@@H](Cc2c[nH]c4ccccc24)C(=O)NC3)ccn1` [Example 205, (7S,10S,13S)-13-((1H-Indol-3-yl)methyl)-10-(4-aminobutyl)-7-(3-aminopropyl)-18-(2-methoxypyridin-4-yl)-12-methyl-6,7,9,10,12,13,15,16-octahydrodipyrido[2,3-b:4′,3′-p][1,5,8,11,14]thiatetraazacycloheptadecine-8,11,14(5H)-trione], the MIC was 16 mg/L (≈ 20.5 µM). Take `CN1C(=O)[C@H](CCCCN)NC(=O)[C@H](CCCN)NCc2cccnc2Sc2c(Cl)cc(-c3cc(F)nc(F)c3)cc2CNC(=O)[C@@H]1Cc1c[nH]c2ccccc12` [Example 209, (11S,14S,17S)-14-(4-Amino-butyl)-11-(3-amino-propyl)-25-chloro-23-(2,6-difluoro-pyridin-4-yl)-17-(1H-indol-3-ylmethyl)-16-methyl-2-thia-4,10,13,16,19-pentaaza-tricyclo[19.4.0.0*3,8*]pentacosa-1(21),3(8),4,6,22,24-hexaene-12,15,18-trione]: the MIC was 0.25 mg/L (≈ 0.305 µM). With `CNC(=O)CC[C@@H]1NCc2cccnc2Sc2c(Cl)cc(Cl)cc2CNC(=O)[C@H](Cc2c[nH]c3ccccc23)N(C)C(=O)[C@H](CCCCN)NC1=O` [Example 210, 3-[(11S,14S,17S)-14-(4-Amino-butyl)-23,25-dichloro-17-(1H-indol-3-ylmethyl)-16-methyl-12,15,18-trioxo-2-thia-4,10,13,16,19-pentaaza-tricyclo[19.4.0.0*3,8*]pentacosa-1(25),3(8),4,6,21,23-hexaen-11-yl]-N-methyl-propionamide], the MIC stood at 16 mg/L (≈ 20.8 µM).

For `CN1C(=O)[C@H](CCCCN)NC(=O)[C@H](CCCN)NCc2cccnc2Sc2c(Cl)cc(-c3ccc(C#N)cc3)cc2CNC(=O)[C@@H]1Cc1c[nH]c2ccccc12` [Example 211, 4-[(11S,14S,17S)-14-(4-Amino-butyl)-11-(3-amino-propyl)-25-chloro-17-(1H-indol-3-ylmethyl)-16-methyl-12,15,18-trioxo-2-thia-4,10,13,16,19-pentaaza-tricyclo[19.4.0.0*3,8*]pentacosa-1(25),3(8),4,6,21,23-hexaen-23-yl]-benzonitrile], the minimal inhibitory concentration (MIC) was found to be 16 mg/L (≈ 19.8 µM).

For the molecule `Cc1cc(-c2ccc(Cl)c3c2CNC(=O)[C@H](Cc2c[nH]c4ccccc24)N(C)C(=O)[C@H](CCCCN)NC(=O)[C@H](CCCN)NCc2cccnc2S3)ccn1` [Example 212, (11S,14S,17S)-14-(4-Amino-butyl)-11-(3-amino-propyl)-25-chloro-17-(1H-indol-3-ylmethyl)-16-methyl-22-(2-methyl-pyridin-4-yl)-2-thia-4,10,13,16,19-pentaaza-tricyclo[19.4.0.0*3,8*]pentacosa-1(25),3(8),4,6,21,23-hexaene-12,15,18-trione], the MIC is 32 mg/L (≈ 40.2 µM). With `CN1C(=O)[C@H](CCCCN)NC(=O)[C@H](CCCN)NCc2cccnc2Sc2c(Cl)cc(-c3ccncn3)cc2CNC(=O)[C@@H]1Cc1c[nH]c2ccccc12` [Example 213, (11S,14S,17S)-14-(4-Amino-butyl)-11-(3-amino-propyl)-25-chloro-17-(1H-indol-3-ylmethyl)-16-methyl-23-pyrimidin-4-yl-2-thia-4,10,13,16,19-pentaaza-tricyclo[19.4.0.0*3,8*]pentacosa-1(21),3,5,7,22,24-hexaene-12,15,18-trione] the figure was 2 mg/L (≈ 2.55 µM); with `CN1C(=O)[C@H](CCCCN)NC(=O)[C@H](CCCN)NCc2cccnc2Sc2c(Cl)cc(-c3ccc(S(N)(=O)=O)cc3)cc2CNC(=O)[C@@H]1Cc1c[nH]c2ccccc12` [Example 214, 4-[(11S,14S,17S)-14-(4-Amino-butyl)-11-(3-amino-propyl)-25-chloro-17-(1H-indol-3-ylmethyl)-16-methyl-12,15,18-trioxo-2-thia-4,10,13,16,19-pentaaza-tricyclo[19.4.0.0*3,8*]pentacosa-1(21),3,5,7,22,24-hexaen-23-yl]-benzenesulfonamide], 0.25 mg/L (≈ 0.291 µM). With `CN1C(=O)[C@H](CCCCN)NC(=O)[C@H](CCC(N)=O)NCc2cccnc2Sc2c(Cl)ccc(-c3cccnc3)c2CNC(=O)[C@@H]1Cc1c[nH]c2ccccc12` [Example 221, 3-[(11S,14S,17S)-14-(4-Amino-butyl)-25-chloro-17-(1H-indol-3-ylmethyl)-16-methyl-12,15,18-trioxo-22-pyridin-3-yl-2-thia-4,10,13,16,19-pentaaza-tricyclo[19.4.0.0*3,8*]pentacosa-1(25),3(8),4,6,21,23-hexaen-11-yl]-propionamide], the MIC was found to be 0.25 mg/L (≈ 0.314 µM). To `CN1C(=O)[C@H](CCCCN)NC(=O)[C@H](CCCN)NCc2cccnc2Sc2c(Cl)ccc(-c3ccnc(F)c3)c2CNC(=O)[C@@H]1Cc1c[nH]c2ccccc12` [Example 222, (11S,14S,17S)-14-(4-Amino-butyl)-11-(3-amino-propyl)-25-chloro-22-(2-fluoro-pyridin-4-yl)-17-(1H-indol-3-ylmethyl)-16-methyl-2-thia-4,10,13,16,19-pentaaza-tricyclo[19.4.0.0*3,8*]pentacosa-1(25),3(8),4,6,21,23hexaene-12,15,18-trione] belongs 0.12 mg/L (≈ 0.15 µM). To `CN1C(=O)[C@H](CCCCN)NC(=O)[C@H](CCCN)NCc2cccnc2Sc2c(Cl)cc(-c3ccnc(N)c3)cc2CNC(=O)[C@@H]1Cc1c[nH]c2ccccc12` [Example 223, (11S,14S,17S)-14-(4-Amino-butyl)-11-(3-amino-propyl)-23-(2-amino-pyridin-4-yl)-25-chloro-17-(1H-indol-3-ylmethyl)-16-methyl-2-thia-4,10,13,16,19-pentaaza-tricyclo[19.4.0.0*3,8*]pentacosa-1(21),3,5,7,22,24-hexaene-12,15,18-trione] belongs 1 mg/L (≈ 1.25 µM); to `CN1C(=O)[C@H](CCCCN)NC(=O)[C@H](CCCN)NCc2cccnc2Sc2c(Cl)ccc(-c3ccc(S(N)(=O)=O)cc3)c2CNC(=O)[C@@H]1Cc1c[nH]c2ccccc12` [Example 224, 4-[(11S,14S,17S)-14-(4-Amino-butyl)-11-(3-amino-propyl)-25-chloro-17-(1H-indol-3-ylmethyl)-16-methyl-12,15,18-trioxo-2-thia-4,10,13,16,19-pentaaza-tricyclo[19.4.0.0*3,8*]pentacosa-1(21),3,5,7,22,24-hexaen-22-yl]-benzenesulfonamide], 0.12 mg/L (≈ 0.139 µM); to `CN1C(=O)[C@H](CCCCN)NC(=O)[C@H](CCCN)NCc2cccnc2Sc2c(Cl)ccc(-c3ccc(S(C)(=O)=O)cc3)c2CNC(=O)[C@@H]1Cc1c[nH]c2ccccc12` [Example 225, (11S,14S,17S)-14-(4-Amino-butyl)-11-(3-amino-propyl)-25-chloro-17-(1H-indol-3-ylmethyl)-22-(4-methanesulfonyl-phenyl)-16-methyl-2-thia-4,10,13,16,19-pentaaza-tricyclo[19.4.0.0*3,8*]pentacosa-1(21),3,5,7,22,24-hexaene-12,15,18-trione], 0.12 mg/L (≈ 0.14 µM). To `CN1C(=O)[C@H](CCCCN)NC(=O)[C@H](CCCN)NCc2cccnc2Sc2c(Cl)cc(-n3ccnc3)cc2CNC(=O)[C@@H]1Cc1c[nH]c2ccccc12` [Example 227, (11S,14S,17S)-14-(4-Amino-butyl)-11-(3-amino-propyl)-25-chloro-23-imidazol-1-yl-17-(1H-indol-3-ylmethyl)-16-methyl-2-thia-4,10,13,16,19-pentaaza-tricyclo[19.4.0.0*3,8*]pentacosa-1(21),3,5,7,22,24-hexaene-12,15,18-trione] belongs 4 mg/L (≈ 5.19 µM).

`CN1C(=O)[C@H](CCCCN)NC(=O)[C@H](CCCN)NCc2cccnc2Sc2c(Cl)ccc(-c3ccc(N)nc3)c2CNC(=O)[C@@H]1Cc1c[nH]c2ccccc12` [Example 228, (11S,14S,17S)-14-(4-Amino-butyl)-11-(3-amino-propyl)-22-(6-amino-pyridin-3-yl)-25-chloro-17-(1H-indol-3-ylmethyl)-16-methyl-2-thia-4,10,13,16,19-pentaaza-tricyclo[19.4.0.0*3,8*]pentacosa-1(21),3,5,7,22,24-hexaene-12,15,18-trione]: the MIC came out at 0.12 mg/L (≈ 0.15 µM).

In the case of `CN1C(=O)[C@H](CCCCN)NC(=O)[C@H](CCCN)NCc2cccnc2Sc2c(Cl)cc(-c3ccnc(C#N)c3)cc2CNC(=O)[C@@H]1Cc1c[nH]c2ccccc12` [Example 229, 4-[(11S,14S,17S)-14-(4-Amino-butyl)-11-(3-amino-propyl)-25-chloro-17-(1H-indol-3-ylmethyl)-16-methyl-12,15,18-trioxo-2-thia-4,10,13,16,19-pentaaza-tricyclo[19.4.0.0*3,8*]pentacosa-1(21),3,5,7,22,24-hexaen-23-yl]-pyridine-2-carbonitrile], the MIC was 1 mg/L (≈ 1.24 µM). Regarding `CN1C(=O)[C@H](CCCCN)NC(=O)[C@H](CCCN)NCc2cccnc2Sc2c(Cl)ccc(-c3ccc(O)nc3)c2CNC(=O)[C@@H]1Cc1c[nH]c2ccccc12` [Example 230, (11S,14S,17S)-14-(4-Amino-butyl)-11-(3-amino-propyl)-25-chloro-22-(6-hydroxy-pyridin-3-yl)-17-(1H-indol-3-ylmethyl)-16-methyl-2-thia-4,10,13,16,19-pentaaza-tricyclo[19.4.0.0*3,8*]pentacosa-1(21),3,5,7,22,24-hexaene-12,15,18-trione], the MIC was 0.12 mg/L (≈ 0.15 µM). To `CN1C(=O)[C@H](CCCCN)NC(=O)[C@H](CCC(N)=O)NCc2cccnc2Sc2c(Cl)ccc(-c3ccnc(F)c3)c2CNC(=O)[C@@H]1Cc1c[nH]c2ccccc12` [Example 231, 3-[(11S,14S,17S)-14-(4-Amino-butyl)-25-chloro-22-(2-fluoro-pyridin-4-yl)-17-(1H-indol-3-ylmethyl)-16-methyl-12,15,18-trioxo-2-thia-4,10,13,16,19-pentaaza-tricyclo[19.4.0.0*3,8*]pentacosa-1(21),3,5,7,22,24-hexaen-11-yl]-propionamide] belongs 1 mg/L (≈ 1.23 µM).
